Species: Rattus norvegicus
Experiment: Open TG-GATES - Regimen: Daily Repeat
Assay type: toxicity, organism-based, Sprague-Dawley
Design: regimen Daily Repeat, gender Male, age 6 weeks
Settings: in vivo, po, route gavage; for APTT / Bas / Eos / Fbg / Hb / Ht / Lym / MCH / MCHC / MCV / Mono / Neu / PT / Plat / RBC / Ret / WBC: tissue Blood; for KIDNEY_L / KIDNEY_R / KIDNEY_TOTAL: tissue Kidney; for LIVER: tissue Liver; for A/G / ALP / ALT / AST / BUN / CRE / Ca / Cl / DBIL / GLC / IP / K / LDH / Na / PL / RALB / TBIL / TC / TG / TP / gamma-GTP: tissue Plasma
[1] = 0 mg/kg, 72 h, dose level Control, time 3 day
[2] = 0 mg/kg, […], dose level Control, time 7 day
[3] = 0 mg/kg, […], dose level Control, time 14 day
[4] = 0 mg/kg, […], dose level Control, time 28 day
[5] = 40 mg/kg, 72 h, dose level Low, time 3 day
[6] = 40 mg/kg, […], dose level Low, time 7 day
[7] = 40 mg/kg, […], dose level Low, time 14 day
[8] = 40 mg/kg, […], dose level Low, time 28 day

## COc1ccc(Cc2nccc3cc(OC)c(OC)cc23)cc1OC [PAPAVERINE]
[1]
  TERMINAL_BW: 240.5 g
  APTT: 21.1 s
  Bas: 0%
  Eos: 1%
  Fbg: 326.8 mg/dL
  Hb: 13.5 g/dL
  Ht: 40.7%
  Lym: 81.2%
  MCH: 21 pg
  MCHC: 33.4%
  MCV: 63 fL
  Mono: 2.2%
  Neu: 14.4%
  PT: 15.8 s
  Plat: 114.4 x10_4/uL
  RBC: 645.6 x10_4/ul
  Ret: 6.6%
  WBC: 105.4 x10_2/uL
  KIDNEY_L: 1 g
  KIDNEY_R: 1 g
  KIDNEY_TOTAL: 2 g
  LIVER: 11.4 g
  A/G: 1.2
  ALP: 1572.8 IU/L
  ALT: 41.4 IU/L
  AST: 70.2 IU/L
  BUN: 16 mg/dL
  CRE: 0.2 mg/dL
  Ca: 11 mg/dL
  Cl: 108.2 meq/L
  DBIL: 0 mg/dL
  GLC: 202.2 mg/dL
  IP: 7.2 mg/dL
  K: 4.2 meq/L
  LDH: 171.6 IU/L
  Na: 142.6 meq/L
  PL: 136.4 mg/dL
  RALB: 3 g/dL
  TBIL: 0.004 mg/dL
  TC: 72 mg/dL
  TG: 116 mg/dL
  TP: 5.5 g/dL
  gamma-GTP: 1.2 IU/L
[2]
  TERMINAL_BW: 267.4 g
  APTT: 23.2 s
  Bas: 0%
  Eos: 0.8%
  Fbg: 299 mg/dL
  Hb: 13.7 g/dL
  Ht: 40.3%
  Lym: 80%
  MCH: 21 pg
  MCHC: 34.1%
  MCV: 61.6 fL
  Mono: 2.8%
  Neu: 14.8%
  PT: 15.7 s
  Plat: 111.7 x10_4/uL
  RBC: 654 x10_4/ul
  Ret: 5.6%
  WBC: 125.6 x10_2/uL
  KIDNEY_L: 1.1 g
  KIDNEY_R: 1.1 g
  KIDNEY_TOTAL: 2.2 g
  LIVER: 12.1 g
  A/G: 1.2
  ALP: 1358 IU/L
  ALT: 47 IU/L
  AST: 82.2 IU/L
  BUN: 19.4 mg/dL
  CRE: 0.2 mg/dL
  Ca: 10.3 mg/dL
  Cl: 107.2 meq/L
  DBIL: 0 mg/dL
  GLC: 203.2 mg/dL
  IP: 6.7 mg/dL
  K: 4.4 meq/L
  LDH: 248.2 IU/L
  Na: 140.4 meq/L
  PL: 148.8 mg/dL
  RALB: 3 g/dL
  TBIL: 0 mg/dL
  TC: 75 mg/dL
  TG: 101.6 mg/dL
  TP: 5.5 g/dL
  gamma-GTP: 2 IU/L
[3]
  TERMINAL_BW: 326.9 g
  APTT: 22.8 s
  Bas: 0%
  Eos: 1%
  Fbg: 316.8 mg/dL
  Hb: 14.6 g/dL
  Ht: 42.7%
  Lym: 82%
  MCH: 20.7 pg
  MCHC: 34.1%
  MCV: 60.5 fL
  Mono: 2.2%
  Neu: 13.2%
  PT: 15.5 s
  Plat: 107 x10_4/uL
  RBC: 707 x10_4/ul
  Ret: 5%
  WBC: 120 x10_2/uL
  KIDNEY_L: 1.2 g
  KIDNEY_R: 1.3 g
  KIDNEY_TOTAL: 2.5 g
  LIVER: 14.2 g
  A/G: 1.1
  ALP: 1381.4 IU/L
  ALT: 42.2 IU/L
  AST: 67 IU/L
  BUN: 17.6 mg/dL
  CRE: 0.2 mg/dL
  Ca: 10.5 mg/dL
  Cl: 106.6 meq/L
  DBIL: 0 mg/dL
  GLC: 199.6 mg/dL
  IP: 6.7 mg/dL
  K: 4.4 meq/L
  LDH: 164.6 IU/L
  Na: 142.8 meq/L
  PL: 148.4 mg/dL
  RALB: 3 g/dL
  TBIL: 0.016 mg/dL
  TC: 78.4 mg/dL
  TG: 119.2 mg/dL
  TP: 5.7 g/dL
  gamma-GTP: 2.4 IU/L
[4]
  TERMINAL_BW: 413.6 g
  APTT: 24.6 s
  Bas: 0%
  Eos: 1.6%
  Fbg: 315.8 mg/dL
  Hb: 14.5 g/dL
  Ht: 43.8%
  Lym: 77.8%
  MCH: 18.7 pg
  MCHC: 33%
  MCV: 56.6 fL
  Mono: 2%
  Neu: 17.8%
  PT: 16 s
  Plat: 101.3 x10_4/uL
  RBC: 775 x10_4/ul
  Ret: 3%
  WBC: 123.2 x10_2/uL
  KIDNEY_L: 1.4 g
  KIDNEY_R: 1.5 g
  KIDNEY_TOTAL: 3 g
  LIVER: 16.8 g
  A/G: 1.1
  ALP: 1231 IU/L
  ALT: 44.4 IU/L
  AST: 68.2 IU/L
  BUN: 20 mg/dL
  CRE: 0.2 mg/dL
  Ca: 10.2 mg/dL
  Cl: 105 meq/L
  DBIL: 0 mg/dL
  GLC: 211.4 mg/dL
  IP: 6.2 mg/dL
  K: 4.1 meq/L
  LDH: 160.4 IU/L
  Na: 141.4 meq/L
  PL: 147.4 mg/dL
  RALB: 3.1 g/dL
  TBIL: 0.008 mg/dL
  TC: 73.6 mg/dL
  TG: 132.6 mg/dL
  TP: 5.8 g/dL
  gamma-GTP: 3.2 IU/L
[5]
  TERMINAL_BW: 246.9 g
  APTT: 21.6 s
  Bas: 0%
  Eos: 0.6%
  Fbg: 325.8 mg/dL
  Hb: 13.1 g/dL
  Ht: 39.6%
  Lym: 77.6%
  MCH: 21.1 pg
  MCHC: 33.2%
  MCV: 63.6 fL
  Mono: 2.8%
  Neu: 18%
  PT: 15.5 s
  Plat: 124.7 x10_4/uL
  RBC: 624.6 x10_4/ul
  Ret: 6.8%
  WBC: 102.4 x10_2/uL
  KIDNEY_L: 1 g
  KIDNEY_R: 1.1 g
  KIDNEY_TOTAL: 2.1 g
  LIVER: 11.6 g
  A/G: 1.2
  ALP: 1776.4 IU/L
  ALT: 44.2 IU/L
  AST: 73 IU/L
  BUN: 17 mg/dL
  CRE: 0.1 mg/dL
  Ca: 10.9 mg/dL
  Cl: 107.6 meq/L
  DBIL: 0 mg/dL
  GLC: 185.4 mg/dL
  IP: 7.5 mg/dL
  K: 4.5 meq/L
  LDH: 184 IU/L
  Na: 142.2 meq/L
  PL: 153.4 mg/dL
  RALB: 3 g/dL
  TBIL: 0.008 mg/dL
  TC: 77.8 mg/dL
  TG: 126 mg/dL
  TP: 5.6 g/dL
  gamma-GTP: 1.4 IU/L
[6]
  TERMINAL_BW: 281.8 g
  APTT: 21.6 s
  Bas: 0%
  Eos: 1%
  Fbg: 317.8 mg/dL
  Hb: 13.1 g/dL
  Ht: 38.8%
  Lym: 80.2%
  MCH: 20.8 pg
  MCHC: 33.7%
  MCV: 61.8 fL
  Mono: 2.2%
  Neu: 15.8%
  PT: 15.4 s
  Plat: 123 x10_4/uL
  RBC: 628 x10_4/ul
  Ret: 6.3%
  WBC: 124.1 x10_2/uL
  KIDNEY_L: 1.2 g
  KIDNEY_R: 1.2 g
  KIDNEY_TOTAL: 2.4 g
  LIVER: 13.2 g
  A/G: 1.2
  ALP: 1841.6 IU/L
  ALT: 40.6 IU/L
  AST: 67.2 IU/L
  BUN: 19.8 mg/dL
  CRE: 0.1 mg/dL
  Ca: 10.8 mg/dL
  Cl: 106 meq/L
  DBIL: 0 mg/dL
  GLC: 189.6 mg/dL
  IP: 6.8 mg/dL
  K: 4.5 meq/L
  LDH: 157 IU/L
  Na: 140.8 meq/L
  PL: 155.6 mg/dL
  RALB: 3 g/dL
  TBIL: 0.002 mg/dL
  TC: 76.4 mg/dL
  TG: 132.6 mg/dL
  TP: 5.5 g/dL
  gamma-GTP: 2.6 IU/L
[7]
  TERMINAL_BW: 316.9 g
  APTT: 23 s
  Bas: 0%
  Eos: 0.6%
  Fbg: 342.6 mg/dL
  Hb: 14.2 g/dL
  Ht: 41.8%
  Lym: 79%
  MCH: 19.7 pg
  MCHC: 34%
  MCV: 57.9 fL
  Mono: 2%
  Neu: 16.6%
  PT: 15.6 s
  Plat: 111.2 x10_4/uL
  RBC: 722.6 x10_4/ul
  Ret: 4.6%
  WBC: 128.3 x10_2/uL
  KIDNEY_L: 1.2 g
  KIDNEY_R: 1.2 g
  KIDNEY_TOTAL: 2.5 g
  LIVER: 14.1 g
  A/G: 1.1
  ALP: 1354 IU/L
  ALT: 40.6 IU/L
  AST: 67.4 IU/L
  BUN: 20.2 mg/dL
  CRE: 0.2 mg/dL
  Ca: 10.2 mg/dL
  Cl: 106.4 meq/L
  DBIL: 0 mg/dL
  GLC: 193.4 mg/dL
  IP: 6.9 mg/dL
  K: 4.2 meq/L
  LDH: 151.6 IU/L
  Na: 143 meq/L
  PL: 139.2 mg/dL
  RALB: 2.9 g/dL
  TBIL: 0.014 mg/dL
  TC: 64.2 mg/dL
  TG: 168 mg/dL
  TP: 5.7 g/dL
  gamma-GTP: 2 IU/L
[8]
  TERMINAL_BW: 422.2 g
  APTT: 25.2 s
  Bas: 0%
  Eos: 1%
  Fbg: 319 mg/dL
  Hb: 14.5 g/dL
  Ht: 43.8%
  Lym: 80%
  MCH: 19.1 pg
  MCHC: 33.1%
  MCV: 57.7 fL
  Mono: 1.8%
  Neu: 15.8%
  PT: 15.8 s
  Plat: 105.3 x10_4/uL
  RBC: 760.4 x10_4/ul
  Ret: 3.1%
  WBC: 151.9 x10_2/uL
  KIDNEY_L: 1.4 g
  KIDNEY_R: 1.5 g
  KIDNEY_TOTAL: 2.9 g
  LIVER: 17.3 g
  A/G: 1.1
  ALP: 1003.2 IU/L
  ALT: 36.4 IU/L
  AST: 62.2 IU/L
  BUN: 20 mg/dL
  CRE: 0.2 mg/dL
  Ca: 10.2 mg/dL
  Cl: 106 meq/L
  DBIL: 0 mg/dL
  GLC: 196 mg/dL
  IP: 6 mg/dL
  K: 4.1 meq/L
  LDH: 141.6 IU/L
  Na: 141.8 meq/L
  PL: 142.4 mg/dL
  RALB: 3.2 g/dL
  TBIL: 0.008 mg/dL
  TC: 68.6 mg/dL
  TG: 152.4 mg/dL
  TP: 6 g/dL
  gamma-GTP: 2.6 IU/L

— ChEMBL document CHEMBL3885861, “Open TG-GATES”
